Data reported in US12419902B2, “Anti-viral and anti-tumoral compounds” (priority 2019, dated 2025).
In brackets after ≈: the same amount, converted by molar mass.

Key:
Influenza A (H1N1) = assay: microbe, parasite or virus in culture; format: cell-based
Influenza A (H5N1) = assay: microbe, parasite or virus in culture; format: cell-based
Influenza B = assay: microbe, parasite or virus in culture; format: cell-based
[1] = system: Rift Valley fever virus (RVFV); assay: microbe, parasite or virus in culture; format: cell-based; settings: Vero 76
RSV = assay: microbe, parasite or virus in culture; format: cell-based; settings: human respiratory syncytial virus, MA104
enterovirus-68 (EV-68) = format: cell-based
Zika virus [2] = settings: nucleoside applied to cells, phosphorylated to ddhCTP; cited from earlier work
in vitro [3] = settings: human
in vitro [4] = settings: African green monkey
Zika virus [5] = format: cell-based

In the case of `O=c1ccn([C@@H]2OC(CO)=C[C@H]2O)c(=O)[nH]1` [AB21649], the “antiviral activity (in words)” value (Influenza A (H1N1)) is reported as “exhibits antiviral activity”, the “antiviral activity (in words)” value (Influenza A (H5N1)) is reported as “exhibits antiviral activity” and the “antiviral activity (in words)” value (Influenza B) is reported as “exhibits antiviral activity”.

Work on `NC(=O)c1ncn([C@@H]2O[C@H](CO)[C@@H](O)[C@H]2O)n1` [Ribavirin] yielded an EC50 (Influenza A (H1N1); Influenza A virus, H1N1, MDCK) of 4.6 µg/mL (≈ 18.8 µM), an EC50 [1] of 14 µg/mL (≈ 57.3 µM) and an EC50 (Influenza A (H5N1); Influenza A virus, H5N1, MDCK) of 1.8 µg/mL (≈ 7.37 µM). It also gave an EC50 (RSV) of 7.3 µg/mL (≈ 29.9 µM) and an EC50 (Influenza B; Influenza B virus, MDCK) of 1.4 µg/mL (≈ 5.73 µM).

With `Nc1nc2c(ncn2[C@@H]2OC(CO)=CC2O)c(=O)[nH]1` (stereo partly drawn) [AB21651] the “antiviral activity (in words)” value (Influenza A (H1N1)) was “exhibits antiviral activity” and the “antiviral activity (in words)” value (Influenza A (H5N1)) was “exhibits antiviral activity”.

For `Nc1ccn([C@@H]2OC(CO)=C[C@H]2O)c(=O)n1` [AB21650, 3′-deoxy-3′,4′-didehydro cytidine], the “antiviral activity (in words)” value (enterovirus-68 (EV-68)) is listed as “exhibits some activity” and the “replication of Zika virus” value (Zika virus [2]) is listed as “directly inhibit replication of Zika virus”.

With `CCOC(=O)c1ccc(OCCC2CCN(c3ccc(C)nn3)CC2)cc1` [Pirodavir] the CC50 (in vitro [3]) was 4.3 µg/mL (≈ 11.6 µM).

`CC(C)S(=O)(=O)n1c(N)nc2ccc(/C(=N/O)c3ccccc3)cc21` [Enviroxime] showed a CC50 (in vitro [4]) of 3.3 µg/mL (≈ 9.21 µM).

For `C#C[C@@]1(O)[C@H](O)[C@@H](CO)O[C@H]1n1ccc2c(N)ncnc21` [NITD008], the EC50 (Zika virus [5]) was 1.8 µg/mL (≈ 6.2 µM).
